Where “and” joins values, the source holds several entries; their conditions need not be identical. Equal values may be shown once. Read-outs that look alike come from different tables or passages of the source.
Key:
Format in all cases: cell-based
AR-V7 = target: T1, AR-V7 (Homo sapiens, UniProt P10275); assay: PSA6.1 promoter driven luciferase reporter assay in PC3-AR-V7-GFP cells; conditions: constitutive, 24 h; read-out: PC-3-ARV7-GFP PSA6.1-Luc Reporter IC50
T1 construct: expressed in transfected cells; host or cells: PC3 cells stably expressing AR-V7-GFP
T1 sequence (P10275 1-644 isoform P10275-3): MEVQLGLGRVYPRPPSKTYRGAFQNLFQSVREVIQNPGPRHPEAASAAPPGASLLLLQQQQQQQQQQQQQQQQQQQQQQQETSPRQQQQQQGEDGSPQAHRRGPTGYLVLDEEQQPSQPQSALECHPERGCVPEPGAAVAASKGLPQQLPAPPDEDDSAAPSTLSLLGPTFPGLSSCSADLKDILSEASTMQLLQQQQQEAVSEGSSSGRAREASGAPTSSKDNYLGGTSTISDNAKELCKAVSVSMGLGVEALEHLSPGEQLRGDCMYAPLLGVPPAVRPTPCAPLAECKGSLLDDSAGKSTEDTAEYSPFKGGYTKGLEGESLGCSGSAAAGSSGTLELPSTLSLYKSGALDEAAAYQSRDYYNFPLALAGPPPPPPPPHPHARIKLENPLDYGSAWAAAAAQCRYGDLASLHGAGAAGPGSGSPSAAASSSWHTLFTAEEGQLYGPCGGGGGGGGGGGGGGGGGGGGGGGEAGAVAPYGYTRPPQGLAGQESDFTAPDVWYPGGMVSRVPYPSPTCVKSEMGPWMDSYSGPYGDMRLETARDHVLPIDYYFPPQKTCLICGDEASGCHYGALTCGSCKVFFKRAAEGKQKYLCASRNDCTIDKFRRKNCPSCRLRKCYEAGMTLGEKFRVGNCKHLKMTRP
Description: PC3-AR-V7-GFP cells were bulk transfected with a mixture of Fugene HD and the PSA-6.1-Luc reporter plasmid (20 ng/well) combined at a 3:1 (μL:μg) ratio in Opti-MEM (Gibco, Gaithersburg, MD) that had been incubated for 25 min at RT before being added to PC3-AR-V7-GFP cells that were suspended in RPMI 1640 (Gibco) media containing 1% L-glutamine (Invitrogen), and 10% fetal bovine serum (Gemini Bio-products). Bulk transfected PC3-AR-V7-GFP cells were seeded into white opaque 384-well assay plates (Greiner Bio-one, #781080) at 3000 cells per well in a volume of 40 μL and incubated at 5% CO2, 37 °C, and 95% humidity for 24 h. After 24 h, 5 μL of compounds were transferred to assay wells and the plates were returned to the incubator for an additional 24 h before 25 μL of BrightGlo luciferase reagent (Promega) was added to the wells and the RLU’s were captured on a SpectraMax M5e plate reader (Molecular Devices LLC) as described previously.

[1] = M2H viability counter screen; conditions: human, HEK 293 cells; cytotoxicity counter screen; read-out: M2H viability CS GI50
[2] = tested on: PC cell lines positive (LNCaP, C4–2, & 22Rv1 cells) or negative (PC-3 & DU-145) for AR; assay: Prostate cancer cell line growth inhibition assays, panel statements; conditions: 72 h
Description: (§1) The PC-3, DU-145, LNCaP, C4–2, and 22Rv1 PC cell line growth inhibition assays have been described previously. On day 1, each PC cell line was harvested, counted, and seeded into two 384-well assay plates, a time zero (T0) and a time 72 h (T72) plate. PC cell lines were all seeded at 1000 cells per well in 45 μL of tissue culture media in uncoated white clear bottom 384-well assay plates (VWR, # 82050–076) using a Matrix electronic multichannel pipette (Thermo Fisher Scientific, Waltham, MA) and cultured overnight at 37 °C, 5% CO2, and 95% humidity. On day 2, 25 μL of the Cell Titer Glo (CTG) (Promega Corporation, Madison, WI) detection reagent was dispensed into the wells of the T0 assay plate using a Matrix electronic multichannel pipette, and the RLUs were captured on the SpectraMax M5e (Molecular Devices LLC, Sunnyvale, CA) microtiter plate reader. Also on day 2, 5 μL of compounds were transferred into the test wells of the T72 384-well assay plates which were returned to the incubator for 72 h. Control wells received DMSO alone. On day 5, 25 μL of the CTG detection reagent was dispensed into the wells of the T72 assay plate using a Matrix electronic multichannel pipette, and the RLU’s were captured on the SpectraMax M5e microtiter plate reader platform.
(§2) In 384-well assays, DMSO minimum (n = 32) and maximum (n = 32) plate control wells were utilized to calculate signal-to-background ratios (S:B) and Z’-factor coefficient assay performance quality control statistics, and to normalize the signals of compound treated wells and to represent 0% and 100% respectively. For the 96-well AR-LBD H^3-DHT radioligand binding assay, eight minimum and maximum plate control wells were utilized to normalize the data. For the PC cell line growth inhibition assays we used the DMSO control data from the T0 and T72 assay plates to assess the dynamic range of the T0 to T72 cell growth, and to calculate S:B ratios and Z’-factor coefficient statistics for the assay signal window (T0 to T72). To normalize the 72 h compound exposure PC growth inhibition data, the signals from the compound treated wells were processed and expressed as% of the T72 DMSO plate controls. IC50 and GI50 values for each of the bioassays were calculated using Graph-Pad Prism 9 software to plot and fit data to curves using the Sigmoidal dose response variable slope equation Y = Bottom + [Top-Bottom]/ [1 + 10^^(LogEC50-X)*HillSlope].

DU-145 cells = assay: Prostate cancer cell line growth inhibition assay, DU-145; conditions: read-out: DU145 GI50 (AR−)
Description: as §1, §2

[3] = LNCaP, C4–2, 22Rv1, read-out: GI50s in AR positive PC cell lines

SMILES	IC50 (AR-V7)	GI50 [2, 3]	GI50 (DU-145 cells; Homo sapiens, DU-145, 72 h)	GI50 (DU-145 cells; 72 h)	GI50 ([2]; Homo sapiens, PC-3, DU-145, read-out: GI50s in AR negative PC cell lines)	GI50 [1]	Cytotoxicity in AR positive relative to AR negative PC cell lines [2]
Cc1ccccc1-c1cc(O)c2c(c1)CN(c1nc(C(N)=O)cs1)CCO2 [S1–1]	33.5 µM	29 to 56 µM	> 100 µM	–	–	58.6 µM	–
Cc1ccccc1-c1cc(O)c2c(c1)CN(c1nccs1)CCO2 [S1–3]	–	–	–	> 100 µM	–	–	exhibited differential cytotoxicity in AR positive PC cell lines
Cc1nsc(NC(=O)N2CCC(Sc3ccccc3C)CC2)n1 [S2–6]	8 µM and 7.88 µM	14 to 19 µM	> 100 µM	–	> 100 µM	> 100 µM	exhibited differential cytotoxicity in AR positive PC cell lines
Cc1c(-c2ccccc2F)[nH]c2ccc(CNC(=O)CCc3cnccn3)cc12 [S3–12]	8.17 µM	–	6.82 µM	–	–	> 100 µM	roughly equipotent against all 5 PC cell lines

The next lines start with results.

IC50 (AR-V7)	GI50 [2, 3]	GI50 (DU-145 cells; Homo sapiens, DU-145, 72 h)	GI50 (DU-145 cells; 72 h)	GI50 ([2]; Homo sapiens, PC-3, DU-145, read-out: GI50s in AR negative PC cell lines)	SMILES	GI50 [1]	Cytotoxicity in AR positive relative to AR negative PC cell lines [2]
10.7 µM	–	18 µM	–	–	Cc1c(-c2ccccc2F)[nH]c2ccc(CNC(=O)CCc3cn[nH]c3)cc12 [S3–11]	69.2 µM	exhibited differential cytotoxicity in AR positive PC cell lines relative to AR negative cell lines
51.7 µM	–	> 100 µM	–	–	CC(=O)NCCC(=O)NCc1ccc2[nH]c(-c3ccccc3F)c(C)c2c1 [S3–13]	> 100 µM	roughly equipotent against all 5 PC cell lines
43.9 µM	–	> 100 µM	–	–	Cc1c(-c2ccccc2F)[nH]c2ccc(CNC(=O)c3ccc(CO)o3)cc12 [S3–14]	> 100 µM	exhibited differential cytotoxicity in AR positive PC cell lines relative to AR negative cell lines
10.1 µM	–	24.3 µM	–	–	Cc1c(-c2ccc(F)cc2)[nH]c2ccc(CNC(=O)c3ccc(CO)o3)cc12 [S3–15]	> 100 µM	roughly equipotent against all 5 PC cell lines

Source: paper PMC12366525, “Characterization of allosteric modulators that disrupt androgen receptor co-activator protein-protein interactions to alter transactivation–Drug leads for metastatic castration resistant prostate cancer” (SLAS discovery : advancing life sciences R & D, 2023)
